Test results published in publication PMC3846386 (Journal of medicinal chemistry, 2013).
pEC50: −log10 of the molar value. Values belong to the compound of their own block, whether it stands above or below them.

How the values were obtained:
[1] = CellTiter-Glo luminescent cell viability assay; type: cell-based
[2] = biological target: T1, GFP-FLMBT (GFP fusion of full-length L3MBTL3) (Homo sapiens, UniProt Q96JM7); assay: Displacement of mero76-1 from GFP-FLMBT in HEK293 cells; type: cell-based
T1 sequence (Q96JM7 1-780): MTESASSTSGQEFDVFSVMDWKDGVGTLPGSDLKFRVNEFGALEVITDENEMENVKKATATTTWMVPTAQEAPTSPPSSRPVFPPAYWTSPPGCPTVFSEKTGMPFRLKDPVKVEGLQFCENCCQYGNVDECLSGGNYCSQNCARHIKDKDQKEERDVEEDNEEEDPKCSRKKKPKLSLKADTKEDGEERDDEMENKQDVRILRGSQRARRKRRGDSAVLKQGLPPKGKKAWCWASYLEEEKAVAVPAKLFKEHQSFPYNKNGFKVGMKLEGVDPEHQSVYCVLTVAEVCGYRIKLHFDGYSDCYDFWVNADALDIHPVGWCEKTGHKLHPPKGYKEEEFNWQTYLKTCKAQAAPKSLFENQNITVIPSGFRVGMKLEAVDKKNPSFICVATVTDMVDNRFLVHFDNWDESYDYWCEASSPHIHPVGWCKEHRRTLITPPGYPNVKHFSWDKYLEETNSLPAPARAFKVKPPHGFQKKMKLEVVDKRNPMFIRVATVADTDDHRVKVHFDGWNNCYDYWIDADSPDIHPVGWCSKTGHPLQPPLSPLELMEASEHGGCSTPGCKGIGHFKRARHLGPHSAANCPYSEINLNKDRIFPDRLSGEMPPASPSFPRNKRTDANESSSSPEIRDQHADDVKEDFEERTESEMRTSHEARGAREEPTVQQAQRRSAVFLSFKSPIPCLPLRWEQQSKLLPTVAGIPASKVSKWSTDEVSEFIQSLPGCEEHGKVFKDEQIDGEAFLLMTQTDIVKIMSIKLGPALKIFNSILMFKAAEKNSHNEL

endogenous L3MBTL3 = biological target: T2, endogenous L3MBTL3 (Homo sapiens, UniProt Q96JM7); assay: Biotin-1 pull-down; type: binding; settings: G-401 cell lysates, Western analysis
T2 sequence (Q96JM7 1-780): T1 sequence (Q96JM7 1-780)

[3] = tested on: GFP fusion protein containing the three MBT domains of L3MBTL3 (GFP-3MBT); settings: read-out: EC50, effect on subnuclear localization of GFP-3MBT; cells; cited from earlier work
L3MBTL3 = biological target: T3, L3MBTL3 (Homo sapiens, UniProt Q96JM7); assay: AlphaScreen competition assay; settings: in words
T3 sequence (Q96JM7 1-780): T1 sequence (Q96JM7 1-780)

L3MBTL1 = biological target: T4, L3MBTL1 (Homo sapiens, UniProt Q9Y468); assay: Isothermal titration calorimetry; type: binding; settings: in words
T4 sequence (Q9Y468 1-772 isoform Q9Y468-1): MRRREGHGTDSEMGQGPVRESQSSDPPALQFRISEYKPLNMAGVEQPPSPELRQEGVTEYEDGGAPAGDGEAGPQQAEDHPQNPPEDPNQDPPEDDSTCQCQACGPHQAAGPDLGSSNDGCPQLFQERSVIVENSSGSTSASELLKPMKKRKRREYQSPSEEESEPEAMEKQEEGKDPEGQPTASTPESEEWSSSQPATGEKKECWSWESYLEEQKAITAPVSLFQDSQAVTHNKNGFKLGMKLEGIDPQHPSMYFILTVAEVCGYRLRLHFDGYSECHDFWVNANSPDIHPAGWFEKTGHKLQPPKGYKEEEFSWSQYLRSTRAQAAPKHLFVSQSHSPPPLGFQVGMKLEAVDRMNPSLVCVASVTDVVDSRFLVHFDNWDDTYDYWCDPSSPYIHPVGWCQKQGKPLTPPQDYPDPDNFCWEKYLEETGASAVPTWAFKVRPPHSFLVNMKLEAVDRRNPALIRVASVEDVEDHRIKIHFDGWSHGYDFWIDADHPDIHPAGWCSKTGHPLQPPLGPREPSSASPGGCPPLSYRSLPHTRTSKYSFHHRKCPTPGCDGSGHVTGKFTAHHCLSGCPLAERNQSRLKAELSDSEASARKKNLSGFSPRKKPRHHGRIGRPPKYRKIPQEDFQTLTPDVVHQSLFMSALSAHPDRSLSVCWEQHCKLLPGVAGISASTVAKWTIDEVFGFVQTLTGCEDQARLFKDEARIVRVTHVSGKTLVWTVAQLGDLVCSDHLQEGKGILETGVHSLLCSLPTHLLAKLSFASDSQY

displacement of mero76-1 from GFP-L3MBTL3 ([2]; 1 equivalent relative to mero76-1): displace mero76-1 from GFP-L3MBTL3
competition with biotin-1 for binding to endogenous L3MBTL3 (endogenous L3MBTL3): competed off with soluble 1
Compound: O=C(c1ccc(C(=O)N2CCC(N3CCCC3)CC2)c(Nc2ccccc2)c1)N1CCC(N2CCCC2)CC1 [Compound 1]
cytotoxicity, no observable level up to [1]: > 100 µM
displacement of mero76-1 from GFP-FLMBT ([2]; 1 or 5 equivalents relative to mero76-1 (both concentrations)): largely displaces mero76-1 from GFP-FLMBT
pEC50 [3]: ~6.30

Compound: O=C(c1cccc(Br)c1)N1CCC(N2CCCC2)CC1 [Compound 57]
change in affinity for L3MBTL1 L361F relative to wildtype L3MBTL1 by ITC (L3MBTL1 L361F): ≤ 2 fold
binding to L3MBTL3 versus L3MBTL1 (L3MBTL3): equally well

Compound: O=C(c1ccc(C(=O)N2CCC(N3CCCCC3)CC2)cc1)N1CCC(N2CCCCC2)CC1 [Compound 37]
competition with biotin-1 for binding to endogenous L3MBTL3 (endogenous L3MBTL3): failed to compete for binding to endogenous L3MBTL3

affinity for L3MBTL1 by follow-up ITC (L3MBTL1): micromolar affinity
Compound: O=C(c1ccc(C(=O)N2CCC(N3CCCC3)CC2)c(NCc2ccccc2)c1)N1CCC(N2CCCC2)CC1 [Compound 49]

Compound: CCN1Cc2ccc(NC(=O)c3ccc(C(=O)N4CCC(C5CCCN5)CC4)cc3)cc2C1 (centres unmarked) [Compound 2]
cytotoxicity, no observable level up to [1]: > 100 µM

Compound: O=C(c1ccc(C(=O)N2CCC(N3CCCC3)CC2)cc1)N1CCC(N2CCCC2)CC1 [Compound 5]
cytotoxicity, no observable level up to [1]: > 100 µM
